According to patent US10259810B2, “N-sulfonylated pyrazolo[3,4-b]pyridin-6-carboxamides and method of use” (AbbVie S.à.r.l., priority 2015, dated 2019):
Like-named read-outs stand apart in the source and are kept apart here.

Columns and labels:
Type in all cases: cell-based
[1] = molecular target: T1, ΔF508-CFTR (Homo sapiens, UniProt P13569, DEL508-508); assay: CFTR cell surface levels using HRP-tagged ΔF508-CFTR expressing CFBE cells, in the presence of a co-corrector; conditions: HRP-tagged ΔF508-CFTR CFBE cells, in the presence of 3 μM co-corrector; for EC50: read-out: EC50
T1 construct: host or cells: CFBE41o-, doxycycline-inducible
T1 sequence (P13569 with tags, fused parts or gaps DEL508-508): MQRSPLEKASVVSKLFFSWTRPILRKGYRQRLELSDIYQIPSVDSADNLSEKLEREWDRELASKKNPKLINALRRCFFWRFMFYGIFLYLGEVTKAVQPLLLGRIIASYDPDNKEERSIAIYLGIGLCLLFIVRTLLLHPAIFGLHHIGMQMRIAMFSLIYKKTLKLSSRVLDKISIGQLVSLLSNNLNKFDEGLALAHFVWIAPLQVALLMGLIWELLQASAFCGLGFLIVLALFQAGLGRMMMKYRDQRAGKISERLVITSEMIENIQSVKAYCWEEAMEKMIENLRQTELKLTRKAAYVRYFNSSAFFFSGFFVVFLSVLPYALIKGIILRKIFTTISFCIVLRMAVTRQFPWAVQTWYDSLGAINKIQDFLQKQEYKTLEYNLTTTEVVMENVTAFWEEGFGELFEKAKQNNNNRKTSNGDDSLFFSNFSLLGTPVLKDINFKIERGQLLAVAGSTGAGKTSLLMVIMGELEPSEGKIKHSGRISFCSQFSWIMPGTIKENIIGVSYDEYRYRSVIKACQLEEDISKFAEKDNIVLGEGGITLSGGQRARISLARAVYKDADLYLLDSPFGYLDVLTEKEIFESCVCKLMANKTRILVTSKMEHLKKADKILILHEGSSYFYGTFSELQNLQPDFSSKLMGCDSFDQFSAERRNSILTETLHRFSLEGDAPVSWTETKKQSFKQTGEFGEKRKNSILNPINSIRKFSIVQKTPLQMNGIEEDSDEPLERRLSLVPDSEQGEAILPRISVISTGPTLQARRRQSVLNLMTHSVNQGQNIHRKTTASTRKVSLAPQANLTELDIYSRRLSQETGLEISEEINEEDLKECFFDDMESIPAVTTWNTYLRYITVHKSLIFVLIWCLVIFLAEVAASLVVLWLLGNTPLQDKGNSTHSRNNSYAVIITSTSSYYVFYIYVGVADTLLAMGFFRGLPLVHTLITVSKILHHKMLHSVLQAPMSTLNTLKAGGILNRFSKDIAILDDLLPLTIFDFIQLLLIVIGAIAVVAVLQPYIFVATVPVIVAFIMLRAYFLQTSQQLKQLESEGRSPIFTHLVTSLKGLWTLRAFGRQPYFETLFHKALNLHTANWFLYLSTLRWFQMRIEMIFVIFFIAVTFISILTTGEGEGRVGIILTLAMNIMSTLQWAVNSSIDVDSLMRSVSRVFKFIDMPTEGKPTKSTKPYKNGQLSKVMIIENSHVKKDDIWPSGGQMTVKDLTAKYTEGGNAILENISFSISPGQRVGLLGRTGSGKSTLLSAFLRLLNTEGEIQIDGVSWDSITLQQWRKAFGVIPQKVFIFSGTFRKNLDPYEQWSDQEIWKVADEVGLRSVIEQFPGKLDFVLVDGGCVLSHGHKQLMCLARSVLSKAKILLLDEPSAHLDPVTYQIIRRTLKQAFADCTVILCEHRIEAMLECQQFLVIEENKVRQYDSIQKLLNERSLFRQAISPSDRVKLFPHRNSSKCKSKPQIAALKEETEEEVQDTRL
How it was run: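 Chemiluminescent read-out of surface HRP (15 min, dark) after PBS washes. Activity is normalized as 100×(sample−DMSO)/(3 μM co-corrector alone−DMSO).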

[2] = molecular target: T1, ΔF508-CFTR; assay: CFTR cell surface levels using HRP-tagged ΔF508-CFTR expressing CFBE cells, intrinsic corrector capacity; parameters: % Activation: concentration or dose not given beside the values; conditions: HRP-tagged ΔF508-CFTR expressing CFBE41o- cells, compound alone (intrinsic corrector capacity), 20 hours at 33° C.; for EC50: read-out: EC50
How it was run: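 Surface ΔF508-CFTR was measured as HRP chemiluminescence from an extracellular-loop-4 tag, expressed as percent activity between DMSO and a […] corrector control.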

[3] = molecular target: T2, CFTR ΔF508 (Homo sapiens, UniProt P13569, DEL508-508); assay: Chronic TECC assay, primary bronchial epithelial cells of CF patients homozygous for CFTR ΔF508 (corrector, co-corrector and potentiator); conditions: chronic TECC; for % Activity at 3 μM (AUC**): test compound at 3 μM
T2 construct: bronchial epithelial cells isolated from CF patients homozygous for the CFTR ΔF508 mutation; McGill University; Asterand; University of North Carolina hAEC-CF; host or cells: primary human bronchial epithelial cells from CF patients homozygous for ΔF508, differentiated at air-liquid interface
T2 sequence (P13569 with tags, fused parts or gaps DEL508-508): as above
How it was run: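 Primary bronchial epithelial cells from ΔF508-homozygous CF patients on collagen IV-coated Transwells were chronically treated with test compound plus corrector and potentiator, which were re-added before recording. Ieq was derived from PD and Rt in NaCl-Ringer, pH 7.4, at 37° C, with apical amiloride and bilateral forskolin, recorded every 2 min over 20 min. Ieq increase was normalized to controls, and EC50 was taken from per-well concentrations.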

[4] = AUC = full area under the curve upon forskolin stimulation
[5] = AUC = full area under the curve upon forskolin stimulation, read-out: EC50 (nM) (AUC**)
[6] = test compound at 1 μM, AUC = full area under the curve upon forskolin stimulation

## CN1CCN(S(=O)(=O)NC(=O)c2cc(N3CCC(N4CCOCC4)CC3)c3c(C4CCC4)nn(-c4ccc(F)cc4)c3n2)CC1 [Compound 624, 3-cyclobutyl-1-(4-fluorophenyl)-N-(4-methylpiperazine-1-sulfonyl)-4-[4-(morpholin-4-yl)piperidin-1-yl]-1H-pyrazolo[3,4-b]pyridine-6-carboxamide]
[1]
  % Activation: 274.15%
  EC50: 549 nM
[2]
  % Activation: 100.59%
  EC50: 1200 nM
[3]; [4]
  % Activity at 3 μM (AUC**): 310%

## CN(C)S(=O)(=O)NC(=O)c1cc(N2CCC(N3CCC(F)(F)CC3)CC2)c2c(C3CCC3)nn(-c3ccc(F)cc3)c2n1 [Compound 526, 3-cyclobutyl-4-(4,4-difluoro[1,4'-bipiperidin]-1'-yl)-N-(dimethylsulfamoyl)-1-(4-fluorophenyl)-1H-pyrazolo[3,4-b]pyridine-6-carboxamide]
[1]
  % Activation: 472.58%
  EC50: 107 nM
[2]
  % Activation: 269.23%
  EC50: 153 nM
[3]; [5]
  EC50: 14.2 nM
[3]; [6]
  % Activity at 1 μM (AUC**): 400%

## COCC1CCN(c2cc(C(=O)NS(=O)(=O)c3cn(C)c(C)n3)nc3c2c(C2CCC2)nn3-c2ccccc2)CC1 [Compound 250, 3-cyclobutyl-N-(1,2-dimethyl-1H-imidazole-4-sulfonyl)-4-[4-(methoxymethyl)piperidin-1-yl]-1-phenyl-1H-pyrazolo[3,4-b]pyridine-6-carboxamide]
[1]
  % Activation: 440.4%
  EC50: 372 nM
[2]
  % Activation: 232.7%
  EC50: 514 nM
[3]; [6]
  % Activity at 1 μM (AUC**): 331.21%

## COc1cc(-n2nc(C3CCC3)c3c(N4CCC(N5CCOCC5)CC4)cc(C(=O)NS(C)(=O)=O)nc32)ccn1 [Compound 474, 3-cyclobutyl-N-(methanesulfonyl)-1-(2-methoxypyridin-4-yl)-4-[4-(morpholin-4-yl)piperidin-1-yl]-1H-pyrazolo[3,4-b]pyridine-6-carboxamide]
[1]
  % Activation: 390.2%
  EC50: 524 nM
[2]
  % Activation: 194.5%
  EC50: 581 nM
[3]; [6]
  % Activity at 1 μM (AUC**): 226.6667%

## COCCS(=O)(=O)NC(=O)c1cc(N2CCC(CCN3CCOCC3)CC2)c2c(C3CCC3)nn(-c3ccc(F)cc3)c2n1 [Compound 415, 3-cyclobutyl-1-(4-fluorophenyl)-N-(2-methoxyethanesulfonyl)-4-{4-[2-(morpholin-4-yl)ethyl]piperidin-1-yl}-1H-pyrazolo[3,4-b]pyridine-6-carboxamide]
[1]
  % Activation: 598%
  EC50: 69.3 nM
[2]
  % Activation: 365.4%
  EC50: 165 nM
[3]; [5]
  EC50: 28.4 nM
[3]; [6]
  % Activity at 1 μM (AUC**): 196.1812%

## CC(C)c1nn(C2CCCCC2)c2nc(C(=O)NS(C)(=O)=O)cc(-c3cnc(N4CCC(C#N)CC4)nc3)c12 [Compound 119, 4-[2-(4-cyanopiperidin-1-yl)pyrimidin-5-yl]-1-cyclohexyl-N-(methanesulfonyl)-3-(propan-2-yl)-1H-pyrazolo[3,4-b]pyridine-6-carboxamide]
[1]
  % Activation: 389.93%
  EC50: 331 nM
[2]
  % Activation: 188.53%
  EC50: 520 nM
[3]; Ieq = calculations based on the maximum current, read-out: EC50 (nM) (Ieq*)
  EC50: > 1000 nM
[3]; test compound at 1 μM, Ieq = calculations based on the maximum current
  % Activity at 1 μM (Ieq*): 157%

## CN(C)S(=O)(=O)NC(=O)c1cc(N2CCC(N3CCN(C4CC4)CC3)CC2)c2c(C3CCC3)nn(-c3ccccc3)c2n1 [Compound 549, 3-cyclobutyl-4-[4-(4-cyclopropylpiperazin-1-yl)piperidin-1-yl]-N-(dimethylsulfamoyl)-1-phenyl-1H-pyrazolo[3,4-b]pyridine-6-carboxamide]
[1]
  % Activation: 476.35%
  EC50: 180 nM
[2]
  % Activation: 276.9%
  EC50: 233 nM
[3]; [5]
  EC50: 243 nM
[3]; [6]
  % Activity at 1 μM (AUC**): 373.3333%

## COCC1CCN(c2cc(C(=O)NS(C)(=O)=O)nc3c2c(C2CCC2)nn3-c2ccccc2)CC1 [Compound 185, 3-cyclobutyl-N-(methanesulfonyl)-4-[4-(methoxymethyl)piperidin-1-yl]-1-phenyl-1H-pyrazolo[3,4-b]pyridine-6-carboxamide]
[1]
  % Activation: 546.7%
  EC50: 145 nM
[2]
  % Activation: 331.6%
  EC50: 241 nM
[3]; [5]
  EC50: 45.4 nM

## COCC1CCN(c2cc(C(=O)NS(C)(=O)=O)nc3c2c(C(C)C)nn3-c2ccc(F)cc2)CC1 [Compound 168, 1-(4-fluorophenyl)-N-(methanesulfonyl)-4-[4-(methoxymethyl)piperidin-1-yl]-3-(propan-2-yl)-1H-pyrazolo[3,4-b]pyridine-6-carboxamide]
[1]
  % Activation: 581.55%
  EC50: 410 nM
[2]
  % Activation: 399.2%
  EC50: 338 nM
[3]; [5]
  EC50: 38.2 nM
[3]; [6]
  % Activity at 1 μM (AUC**): 282.45%

## COC(=O)N1CCC(COc2cc(C(=O)NS(C)(=O)=O)nc3c2c(C(C)C)nn3-c2ccc(F)cc2)CC1 [Compound 322, methyl 4-({[1-(4-fluorophenyl)-6-[(methanesulfonyl)carbamoyl]-3-(propan-2-yl)-1H-pyrazolo[3,4-b]pyridin-4-yl]oxy}methyl)piperidine-1-carboxylate]
[1]
  % Activation: 342.75%
  EC50: 61.4 nM
[2]
  % Activation: 158.25%
  EC50: 128 nM
[3]; [6]
  % Activity at 1 μM (AUC**): 440.86%

## CN(C)S(=O)(=O)NC(=O)c1cc(N2CCC(N3CCC(C#N)CC3)CC2)c2c(C3CCC3)nn(-c3ccc(F)cc3)c2n1 [Compound 522, 4-(4-cyano[1,4'-bipiperidin]-1'-yl)-3-cyclobutyl-N-(dimethylsulfamoyl)-1-(4-fluorophenyl)-1H-pyrazolo[3,4-b]pyridine-6-carboxamide]
[1]
  % Activation: 525.66%
  EC50: 79.8 nM
[2]
  % Activation: 317.9%
  EC50: 114 nM
[3]; [5]
  EC50: 21.9 nM
[3]; [6]
  % Activity at 1 μM (AUC**): 666.6667%

## COC1CCN(C2CCN(c3cc(C(=O)NS(=O)(=O)N4CCC4)nc4c3c(C3CCC3)nn4-c3ccc(F)cc3)CC2)CC1 [Compound 632, N-(azetidine-1-sulfonyl)-3-cyclobutyl-1-(4-fluorophenyl)-4-(4-methoxy[1,4'-bipiperidin]-1'-yl)-1H-pyrazolo[3,4-b]pyridine-6-carboxamide]
[1]
  % Activation: 466.83%
  EC50: 154 nM
[2]
  % Activation: 252.75%
  EC50: 304 nM
[3]; [5]
  EC50: 29.3 nM
[3]; [4]
  % Activity at 3 μM (AUC**): 237.1158%

## CC(C)c1nn(-c2ccnc(N3CCCC3)c2)c2nc(C(=O)NS(C)(=O)=O)cc(-c3ccc(N4CCC(C#N)CC4)cc3)c12 [Compound 169, 4-[4-(4-cyanopiperidin-1-yl)phenyl]-N-(methanesulfonyl)-3-(propan-2-yl)-1-[2-(pyrrolidin-1-yl)pyridin-4-yl]-1H-pyrazolo[3,4-b]pyridine-6-carboxamide]
[1]
  % Activation: 519.3%
  EC50: 284 nM
[2]
  % Activation: 344.25%
  EC50: 426 nM
[3]; [5]
  EC50: 2.1 nM
[3]; [6]
  % Activity at 1 μM (AUC**): 210%

## CS(=O)(=O)NC(=O)c1cc(OCC2CCC(F)(F)C2)c2c(C3CCC3)nn(-c3ccccc3)c2n1 (stereo not drawn) [Compound 238, 3-cyclobutyl-4-[(3,3-difluorocyclopentyl)methoxy]-N-(methanesulfonyl)-1-phenyl-1H-pyrazolo[3,4-b]pyridine-6-carboxamide]
[1]
  % Activation: 347.55%
  EC50: 219 nM
[2]
  % Activation: 159.83%
  EC50: 601 nM
[3]; [6]
  % Activity at 1 μM (AUC**): 521.96%
